What all share (experiment): In vitro inhibition, CellTiter-Glo (CTG) assay
Assay type in all cases: cell-based
Background: In ATP-based viability assays light output follows the ATP content of the culture.

The test system of one assay is A498. The settings on record: 72 hr exposure. As for the experimental part: (§1) Cells were grown in RPMI-1640 supplemented with L-Glutamine and 10% FBS of the following cell lines:
(§2) CCRF-CEM; HL-60; KG-1; CFPAC-1; MiaPACA-2; BxPC-3; HepG2; MDA-MB-231; HCT-116; A498; and NCI-H69
(§3) 18, 96 well plates of each cell line were seeded with the optimized number of cells per well in a total volume of 50 μper well. The plates were left overnight. Plate wells were seeded with 100 pt media for media control. The following day, cells were exposed to test compounds as described below. At the same time as drug exposure, a CTG assay was conducted on the 18th plate for the 0 hr count.
(§4) The compounds were added to cells and medium already on the plate to give desired final concentrations. 50 μL media were added to cell control wells, and 50 μL of mix added to vehicle control wells. 10 μM Doxorubicin was added to appropriate wells as control. Cells exposed to test compound were incubated at 37° C. for 72 hr followed by a CTG assay.
(§5) At the end of the 72 hr exposure period, plates were removed for a CellTiter-Glo (CTG) assay from a 37° C., 5% CO2 incubator and placed on the bench at room temperature for 30 mins. 100 μL of CellTiter-Glo reagent was added and mixed for 2 mins, followed by a further 10 min incubation at room temperature. Luminescence was recorded using Synergy 4.0.

In a further assay the test system is BxPC-3. The settings on record: 72 hr exposure. As for the experimental part:
as §1, §2, §3, §4, §5

The subject of the next assay is CCRF-CEM. The settings on record: 72 hr exposure. As for the experimental part: as §1, §2, §3, §4, §5
Another assay deals with CFPAC-1. The settings on record: 72 hr exposure. Here is the method: as §1, §2, §3, §4, §5
A further assay deals with HCT-116. The settings on record: 72 hr exposure. Here is the method: as §1, §2, §3, §4, §5
The subject of a further assay is HL-60. As for the experimental part:
as §1, §2, §3, §4, §5

The subject of a further assay is HepG2. The settings on record: 72 hr exposure. Here is the method: as §1, §2, §3, §4, §5
For another assay, the system named is KG-1. Here is the method: as §1, §2, §3, §4, §5
The next assay has as its system MDA-MB-231. Here is the method:
as §1, §2, §3, §4, §5

The test system of another assay is MiaPACA-2. The settings on record: 72 hr exposure. Here is the method:
as §1, §2, §3, §4, §5

For the next assay, the system named is NCI-H69. As for the experimental part:
as §1, §2, §3, §4, §5

The mark [1] stands for this setting: Homo sapiens, MDA-MB-231, 72 hr exposure.

3 compounds from patent publication US10766917B2, “Nucleotides for the treatment of cancer” (IDENIX PHARMACEUTICALS LLC, priority 2015, dated 2020) can be followed below.

Each structure is given as a SMILES string. pIC50: −log10 of the molar value.

Usually pIC50 stands for the negative decadic logarithm of the IC50, by convention in mol/L.

In the case of `CCOC(=O)COP(=O)(N[C@@H](CC(C)C)C(=O)OCC)OC[C@H]1O[C@@H](n2ccc(N)nc2=O)C(F)(F)[C@@H]1O` (single isomer, unassigned) [108 (diastereomer 1)], the pIC50 in the assay with A498 is above 6.00; in the assay with BxPC-3 (Homo sapiens, BXPC-3, 72 h), 5.00 to 6.00; with CCRF-CEM (Homo sapiens, CCRF-CEM, 72 h) it was above 6.00; with CFPAC-1 (Homo sapiens, CFPAC-1, 72 h) it was above 6.00; with HCT-116 (Homo sapiens, HCT-116, 72 h), 5.00 to 6.00; in the assay on HL-60 (Homo sapiens, HL-60, 72 h, 72 hr exposure), above 6.00. Further, the pIC50 in the assay with HepG2 (Homo sapiens, HepG2, 72 h) is above 6.00; with KG-1 (Homo sapiens, KG-1, 72 h, 72 hr exposure), above 6.00; in the assay with MDA-MB-231 (setting [1]), 5.00 to 6.00; in the assay with MiaPACA-2 (Homo sapiens, MIA PaCa-2, 72 h), above 6.00; in the assay on NCI-H69 (72 hr exposure), 5.00 to 6.00.
For `Cn1c(COP(=O)(NCc2ccccc2)OC[C@H]2O[C@@H](n3ccc(N)nc3=O)C(F)(F)[C@@H]2O)cnc1[N+](=O)[O-]` (single isomer, unassigned) [112 (diastereomer 2)], the pIC50 in the assay with A498 was 4.00 to 5.00; in the assay with BxPC-3, 4.00 to 5.00; with CCRF-CEM it was above 6.00; with CFPAC-1 it was 5.00 to 6.00; in the assay on HCT-116, 4.00 to 5.00; in the assay on HL-60 (72 hr exposure) it was above 6.00. Further, the pIC50 in the assay with HepG2 is 5.00 to 6.00; in the assay on KG-1 (72 hr exposure), 5.00 to 6.00; in the assay with MDA-MB-231 (72 hr exposure), 4.00 to 5.00; with MiaPACA-2, 4.00 to 5.00; in the assay with NCI-H69 (72 hr exposure), 4.00 to 5.00.
In the case of `CC(C)OC(=O)[C@H](C)NP1(=O)OC[C@H]2O[C@@H](n3ccc(N)nc3=O)C(F)(F)[C@@H]2O1` (single isomer, unassigned) [103 (diastereomer 1)], the pIC50 is 4.00 to 5.00 in the assay on A498 (Homo sapiens, A498, 72 h); 4.00 to 5.00 in the assay on BxPC-3; above 6.00 in the assay on CCRF-CEM (Homo sapiens, CCRF-CEM); above 6.00 in the assay with CFPAC-1 (Homo sapiens, CFPAC-1, 72 h); 5.00 to 6.00 in the assay with HCT-116 (Homo sapiens, HCT-116, 72 h); above 6.00 in the assay with HL-60 (Homo sapiens, HL-60, 72 hr exposure). The negative logarithm of the IC50 (pIC50) was above 6.00 with HepG2 (Homo sapiens, HepG2, 72 h); above 6.00 in the assay on KG-1 (Homo sapiens, KG-1, 72 hr exposure); 4.00 to 5.00 in the assay with MDA-MB-231 (setting [1]); 5.00 to 6.00 in the assay with MiaPACA-2 (Homo sapiens, MIA PaCa-2, 72 h); 4.00 to 5.00 in the assay with NCI-H69 (Homo sapiens, NCI-H69, 72 hr exposure).
